Reference: article PMC8692498, “Synthesis and multifaceted pharmacological activity of novel quinazoline NHE-1 inhibitors” (Scientific Reports, 2021)

How the values were obtained:
NHE-1 [1] = biological target: T1, NHE-1 (Oryctolagus cuniculus, UniProt P23791); assay: NHE-1 inhibition assay on rabbit platelets (platelet shape change after acidification with sodium propionate, laser aggregometer); type: cell-based; settings: for inhibition at 0.01 µM: 10 nM, rabbit platelet-rich plasma, decimal commas, read-out: NHE-1 inhibition at 10 nM, m ± SD, n = 6 (%); for NHE-1 inhibitory activity (in words): compared with reference drugs
T1 construct: endogenous in cells; host or cells: rabbit platelets in platelet-rich plasma (male rabbits)
T1 sequence (P23791 whole entry): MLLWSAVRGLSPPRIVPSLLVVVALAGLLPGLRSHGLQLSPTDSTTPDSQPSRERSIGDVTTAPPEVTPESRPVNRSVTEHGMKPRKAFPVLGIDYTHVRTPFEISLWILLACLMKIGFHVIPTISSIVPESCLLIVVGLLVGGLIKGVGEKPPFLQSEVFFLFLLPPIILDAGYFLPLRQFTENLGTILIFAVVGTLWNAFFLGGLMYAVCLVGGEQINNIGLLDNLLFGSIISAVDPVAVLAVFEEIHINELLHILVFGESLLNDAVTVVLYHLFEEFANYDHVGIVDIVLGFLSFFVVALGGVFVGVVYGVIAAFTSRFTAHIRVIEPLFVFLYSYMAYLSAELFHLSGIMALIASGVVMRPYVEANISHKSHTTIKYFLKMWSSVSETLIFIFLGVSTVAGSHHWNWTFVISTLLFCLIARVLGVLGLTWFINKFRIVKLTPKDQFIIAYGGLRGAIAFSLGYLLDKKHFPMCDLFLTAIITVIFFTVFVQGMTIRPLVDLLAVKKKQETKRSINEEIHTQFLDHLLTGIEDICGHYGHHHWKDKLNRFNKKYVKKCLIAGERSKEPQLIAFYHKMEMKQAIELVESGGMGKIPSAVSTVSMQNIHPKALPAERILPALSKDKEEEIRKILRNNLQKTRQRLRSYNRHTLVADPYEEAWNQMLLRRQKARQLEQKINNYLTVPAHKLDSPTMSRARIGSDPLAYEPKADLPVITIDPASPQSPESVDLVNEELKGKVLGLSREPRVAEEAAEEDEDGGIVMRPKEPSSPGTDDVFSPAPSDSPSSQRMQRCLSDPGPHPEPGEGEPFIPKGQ
Experimental: Evaluation of NHE-1 inhibition was carried out on rabbit platelets by the known method[39],[40]. The experiments were carried out on 15 male rabbits weighing 3.0-4.0 kg. Platelet-rich plasma (PRP) was obtained by centrifuging blood with 3.8% sodium citrate (1:10) at 1000 rpm for 12 min (Multi centrifuge CM 6M, Latvia). Platelet shapeshifting due to acidification was followed with a laser aggregometer BIOLA-220 LA (Russia). Test compounds (10 μl, 10 nM final concentration) were added to 200 μl of PRP 5 min in a cuvette before the addition of sodium propionate solution, incubated with constant stirring using a magnetic stirrer (800 rpm, 37 °C). To control samples for NHE-1 activation, a buffer solution containing sodium propionate was added to 200 μL of PRP (600 μL, 135 mM sodium propionate, 20 mM HEPES, 1 mM CaCI2, 1 mM MgCI2, 10 mM glucose; pH 6.7). The change in light transmission at pH 7.4, 37 °C was monitored in a Krebs solution (600 μL, 120 mM NaCl, 4.8 mM KCl, 1.2 mM KH2PO4, 2.5 mM MgSO4, 25 mM NaHCO3, 2.6 mM CaCl2, 5.4 mM glucose; pH 7.4). Test compounds were added to a final concentration of 10 nM to the cuvette into 200 μl of PRP 5 min before adding the sodium propionate solution, incubated with constant stirring using a magnetic stirrer (800 rpm, 37 °C). NHE-1 inhibitors zoniporide, rimeporide, amiloride were used as reference drugs. Assays were run in 6 independent series.

NHE-1 [2] = biological target: T1, NHE-1; assay: as above; type: cell-based
[3] = test system: primary peritoneal macrophages of C57BL/6J mice; assay: Interleukin-6 secretion (ELISA) from LPS-stimulated peritoneal macrophages; type: cell-based; settings: LPS-stimulated macrophages, screening (Fig. 4)
Experimental: Peritoneal macrophages (PM) were isolated from the peritoneal exudate of 30 male C57bl/6j mice. To accumulate PM, 1 ml of 3% peptone solution was injected intraperitoneally. After 3 days the mice were euthanized by cervical dislocation. Cells of peritoneal exudate were obtained by aseptically washing the abdominal cavity with 5 ml of sterile Hanks’s solution (+ 4-6 °C) without calcium and magnesium ions. The total number and viability of cells were assessed in a Goryaev counting chamber (Russia) with a 0.4% trypan blue staining (Sigma-Aldrich, USA). The cell concentration was adjusted to 1.0×10^6 cells/ml in DMEM (Gibco) supplemented with 2 mM L-glutamine (Gibco), 10% heat-inactivated fetal bovine serum (BioClot, Germany), 100 U/ml penicillin and […] streptomycin (Gibco) and plated 200 μl/well in 96-well transparent plates (SPL Life Sciences Co., Ltd., Korea). It was left for 2 h at 37°C in a humidified atmosphere with 5% CO2, after which the wells were washed to remove non-adherent cells. After 24 hours of incubation, 20 μl of the supernatant was removed and 20 μl of solutions of test compounds were added 30 min before E. coli O127:B8 LPS (100 ng/ml final concentration). Experiments were run in 3 independent replicates.
Cell supernatant was collected and centrifuged at 1000 g for 20 min in a 2-16PK Sigma centrifuge (Germany). The concentration of IL-6 was determined by ELISA using a commercial kit (Cloud-clone ELISA kit) with a microplate reader Infinite M200 PRO (Tecan, Austria).

rabbit platelets = assay: ADP-induced platelet aggregation assay in rabbit platelet-rich plasma; type: cell-based; settings: 100 μM, ADP 5 μM
Experimental: Functional activity of platelets was determined on a two-channel laser analyzer of platelet aggregation "BIOLA-220 LA" (Russia) as described previously. The experiments were carried out on 6 male rabbits weighing 3.5–4 kg. To prepare platelet-rich plasma (PRP) venous blood was taken from the ear marginal vein of a rabbit, stabilized with a 3.8% sodium citrate solution in a ratio of 9:1 and centrifuged for 10 min at 1500 rpm. PRP (300 μL) and a solution of the test compound at a concentration of 100 μM were sequentially introduced into the cell of the aggregometer. The samples were incubated in thermostated cells of the aggregometer at 37 °C for 5 min. To induce aggregation adenosine-5-diphosphoric acid (ADP, Sigma, USA) at a final concentration of 5 μM, was added to the cuvette. Acetylsalicylic acid (Shandong Xinhua Pharmaceutical Co., Ltd., China) was used as a reference drug. Experiments were run in 5 independent replicates.

inhibition at 0.01 µM (NHE-1 [1]) | IC50 (NHE-1 [2]) | melting point | SMILES | secretion of interleukin 6 [3] | antiplatelet activity versus acetylsalicylic acid (rabbit platelets) | NHE-1 inhibitory activity (in words) (NHE-1 [1])
48% | 7.3 nM | – | N=C(N)NC(=O)c1cnn(-c2cccc3ncccc23)c1C1CC1 [Zoniporide, zoniporide, reference compound] | – | – | –
34.2% | – | – | [H]/N=C(\N)NC(=O)c1cc(S(C)(=O)=O)c(S(C)(=O)=O)cc1C [Rimeporide, rimeporide, reference compound] | – | – | –
– | – | 91 to 93 °C | CC(c1nnc(N)[nH]1)n1c(=O)c2ccccc2n(C)c1=O (centres unmarked) (hydrate or solvate) [Compound 3f, 3-[1-(5-Amino-4H-1,2,4-triazol-3-yl)ethyl]-1-methylquinazoline-2,4(1H,3H)-dione] | – | – | –
1.49% | – | 216 to 219 °C | CC(C(=O)NC(=N)N)n1c(=O)c2ccccc2n(C)c1=O (centres unmarked) [Compound 3b, N-Carbamimidoyl-2-(1-methyl-2,4-dioxo-1,4-dihydroquinazolin-3(2H)-yl)propanamide] | suppressed | – | –
– | – | 116 to 118 °C | C=CCn1c(=O)n(C(C)c2nnc(N)[nH]2)c(=O)c2ccccc21 (centres unmarked) (hydrate or solvate) [Compound 3h, 3-[1-(5-Amino-4H-1,2,4-triazol-3-yl)ethyl]-1-(prop-2-en-1-yl)quinazoline-2,4(1H,3H)-dione] | – | – | –
7.3% | – | 180 to 183 °C | N=C(N)NC(=O)Cn1c(=O)c2ccccc2n(Cc2ccccc2)c1=O [Compound 3c, 2-(1-Benzyl-2,4-dioxo-1,4-dihydroquinazolin-3(2H)-yl)-N-carbamimidoylacetamide] | suppressed | – | –
29.8% | – | – | CC(c1nnc(N)[nH]1)n1c(=O)c2ccccc2n(C)c1=O (centres unmarked) [Compound 3f, 3-[1-(5-Amino-4H-1,2,4-triazol-3-yl)ethyl]-1-methylquinazoline-2,4(1H,3H)-dione] | – | exceeded the activity of the reference drug, acetylsalicylic acid | –
33.7% | 293 nM | 266 to 269 °C | Cn1c(=O)n(CC(=O)NC(=N)N)c(=O)c2ccccc21 [Compound 3a, N-Carbamimidoyl-2-(1-methyl-2,4-dioxo-1,4-dihydroquinazolin-3(2H)-yl)acetamide] | – | exceeded the activity of the reference drug, acetylsalicylic acid | comparable to the reference drug rimeporide
10.4% | – | 275 to 277 °C | C=CCn1c(=O)n(Cc2nnc(N)[nH]2)c(=O)c2ccccc21 [Compound 3g, 3-[(5-Amino-4H-1,2,4-triazol-3-yl)methyl]-1-(prop-2-en-1-yl)quinazoline-2,4(1H,3H)-dione] | – | – | –
33.2% | – | – | C=CCn1c(=O)n(C(C)c2nnc(N)[nH]2)c(=O)c2ccccc21 (centres unmarked) [Compound 3h, 3-[1-(5-Amino-4H-1,2,4-triazol-3-yl)ethyl]-1-(prop-2-en-1-yl)quinazoline-2,4(1H,3H)-dione] | – | exceeded the activity of the reference drug, acetylsalicylic acid | comparable to the reference drug rimeporide
